Test results as given in ChEMBL document CHEMBL4340516, “Synthesis and antitumor activity of novel steroidal imidazolium salt derivatives” (Eur J Med Chem, 2019).

Assays:
Type in all cases: functional, cell-based
MCF7 = assay: Antiproliferative activity against human MCF7 cells assessed as reduction in cell viability incubated for 48 hrs by MTS assay; conditions: MCF7, 48 h
A549 = assay: Antiproliferative activity against human A549 cells assessed as reduction in cell viability incubated for 48 hrs by MTS assay; conditions: A549, 48 h
SMMC-7721 = assay: Antiproliferative activity against human SMMC7721 cells assessed as reduction in cell viability incubated for 48 hrs by MTS assay; conditions: SMMC-7721, 48 h
HL-60 = assay: Antiproliferative activity against human HL60 cells assessed as reduction in cell viability incubated for 48 hrs by MTS assay; conditions: HL-60, 48 h
SW480 = assay: Antiproliferative activity against human SW480 cells assessed as reduction in cell viability incubated for 48 hrs by MTS assay; conditions: SW480, 48 h

SMILES | IC50 (MCF7) | IC50 (A549) | IC50 (SMMC-7721) | IC50 (HL-60) | IC50 (SW480)
CC(=O)O[C@H]1CC[C@@]2(C)C(=CC[C@H]3[C@@H]4CC[C@H](n5cc[n+](CC(=O)c6ccc7ccccc7c6)c5)[C@@]4(C)CC[C@@H]32)C1 | 2.1 µM | 4.39 µM | 1.75 µM | 1.26 µM | 4.45 µM
CC(C)CCC[C@@H](C)[C@H]1CC[C@H]2[C@@H]3C[C@H](n4ccnc4)[C@]45C[C@H]4CC[C@]5(C)[C@H]3CC[C@]12C | > 20 µM | 11.7 µM | 2.12 µM | 2 µM | 16.4 µM
C[C@@H]1CC[C@@]2(OC1)O[C@H]1C[C@H]3[C@@H]4CC=C5C[C@@H](n6cc[n+](CC(=O)c7ccc8ccccc8c7)c6)CC[C@]5(C)[C@H]4CC[C@]3(C)[C@H]1[C@@H]2C | 5.83 µM | 3.49 µM | 5.49 µM | 1.37 µM | 6.55 µM
CC(C)CCC[C@@H](C)[C@H]1CC[C@H]2[C@@H]3CC=C4C[C@H](n5ccnc5)CC[C@]4(C)[C@H]3CC[C@]12C | > 20 µM | > 20 µM | > 20 µM | > 20 µM | > 20 µM
C[C@]12CC[C@H]3[C@@H](CC=C4C[C@@H](O)CC[C@@]43C)[C@@H]1CC[C@@H]2n1cc[n+](CC(=O)c2ccccc2)c1 | > 20 µM | > 20 µM | > 20 µM | > 20 µM | > 20 µM
CC(C)CCC[C@@H](C)[C@H]1CC[C@H]2[C@@H]3C[C@H](n4cc[n+](CC(=O)c5ccc6ccccc6c5)c4)[C@]45C[C@H]4CC[C@]5(C)[C@H]3CC[C@]12C | 8 µM | 8.53 µM | 1.23 µM | 2.41 µM | 6.25 µM
CC(C)CCC[C@@H](C)[C@H]1CC[C@H]2[C@@H]3CC=C4C[C@H](n5cc[n+](CC(=O)c6ccc7ccccc7c6)c5)CC[C@]4(C)[C@H]3CC[C@]12C | > 20 µM | 8.82 µM | 1.88 µM | 10.6 µM | 10.5 µM
C[C@@H]1CC[C@@]2(OC1)O[C@H]1C[C@H]3[C@@H]4C[C@H](n5ccnc5)[C@]56C[C@H]5CC[C@]6(C)[C@H]4CC[C@]3(C)[C@H]1[C@@H]2C | 19.7 µM | 10.3 µM | 10 µM | 8.33 µM | > 20 µM
CC(=O)O[C@H]1CC[C@@]2(C)C(=CC[C@H]3[C@@H]4CC[C@H](n5ccnc5)[C@@]4(C)CC[C@@H]32)C1 | > 20 µM | > 20 µM | > 20 µM | > 20 µM | > 20 µM
C[C@@H]1CC[C@@]2(OC1)O[C@H]1C[C@H]3[C@@H]4C[C@H](n5cc[n+](CC(=O)c6ccc7ccccc7c6)c5)[C@]56C[C@H]5CC[C@]6(C)[C@H]4CC[C@]3(C)[C@H]1[C@@H]2C | 2.26 µM | 7.27 µM | 3.46 µM | 1.03 µM | 4.01 µM
C[C@@H]1CC[C@@]2(OC1)O[C@H]1C[C@H]3[C@@H]4C[C@H](n5cc[n+](Cc6ccccc6Br)c5)[C@]56C[C@H]5CC[C@]6(C)[C@H]4CC[C@]3(C)[C@H]1[C@@H]2C | 3.86 µM | 6.6 µM | 4.58 µM | 1.24 µM | 6.33 µM
C[C@]12CC[C@H]3[C@@H](CC=C4C[C@@H](O)CC[C@@]43C)[C@@H]1CC[C@@H]2n1cc[n+](Cc2ccc3ccccc3c2)c1 | 5.08 µM | 7.87 µM | 4.41 µM | 2.68 µM | 6.47 µM
C[C@]12CC[C@H]3[C@@H](CC=C4C[C@@H](O)CC[C@@]43C)[C@@H]1CC[C@@H]2n1cc[n+](CC(=O)c2cccc(Br)c2)c1 | 7.25 µM | > 20 µM | 14.9 µM | 6.42 µM | 9.78 µM
CC(C)CCC[C@@H](C)[C@H]1CC[C@H]2[C@@H]3C[C@H](n4cc[n+](Cc5ccc6ccccc6c5)c4)[C@]45C[C@H]4CC[C@]5(C)[C@H]3CC[C@]12C | 8.04 µM | 7.67 µM | 1.04 µM | 1.64 µM | 7.48 µM
COc1ccc(C(=O)C[n+]2ccn([C@H]3CC[C@H]4[C@@H]5CC=C6C[C@@H](OC(C)=O)CC[C@]6(C)[C@H]5CC[C@]34C)c2)cc1 | 3.46 µM | 10.7 µM | 4.31 µM | 2.2 µM | 6.06 µM
CC(C)CCC[C@@H](C)[C@H]1CC[C@H]2[C@@H]3C[C@H](n4cc[n+](Cc5ccccc5Br)c4)[C@]45C[C@H]4CC[C@]5(C)[C@H]3CC[C@]12C | 10.8 µM | 7.65 µM | 1.16 µM | 5.53 µM | 10.9 µM
